Measurements as given in ChEMBL document CHEMBL1145227, “5-Amidinobenzo[b]thiophenes as dual inhibitors of factors IXa and Xa” (Bioorg Med Chem Lett, 2005).

Assays:
[1] = target: Trypsin (Homo sapiens, UniProt P07477+P07478+P35030); assay: Inhibitory constant against human trypsin; assay type: protein assay
[2] = target: Coagulation factor X (Homo sapiens, UniProt P00742); assay: Inhibitory constant against human purified Coagulation factor Xa (fXa)
[3] = target: Coagulation factor IX (Homo sapiens, UniProt P00740); assay: Inhibitory constant against human purified Coagulation factor IXa (fIXa)
[4] = target: Prothrombin (Homo sapiens, UniProt P00734); assay: Inhibitory constant against human thrombin

Coagulation factor IX, sequence (P00740 47-191 limits assumed): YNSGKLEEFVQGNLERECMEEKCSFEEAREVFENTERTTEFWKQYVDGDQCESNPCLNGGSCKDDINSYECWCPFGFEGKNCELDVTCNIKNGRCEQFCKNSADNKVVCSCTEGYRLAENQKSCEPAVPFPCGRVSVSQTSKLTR
Coagulation factor IX, sequence (P00740 227-461 limits assumed): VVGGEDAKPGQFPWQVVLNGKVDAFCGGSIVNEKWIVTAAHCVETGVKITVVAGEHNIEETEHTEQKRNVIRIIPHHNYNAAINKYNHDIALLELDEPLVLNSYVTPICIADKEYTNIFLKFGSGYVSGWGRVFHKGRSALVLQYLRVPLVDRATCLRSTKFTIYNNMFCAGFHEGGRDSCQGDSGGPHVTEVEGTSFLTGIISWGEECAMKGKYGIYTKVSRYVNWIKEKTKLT
Coagulation factor X, sequence (P00742 41-179 limits assumed): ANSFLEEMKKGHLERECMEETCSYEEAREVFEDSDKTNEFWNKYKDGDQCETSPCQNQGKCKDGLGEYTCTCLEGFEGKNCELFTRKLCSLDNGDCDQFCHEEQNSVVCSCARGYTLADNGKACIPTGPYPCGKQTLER
Coagulation factor X, sequence (P00742 235-488 limits assumed): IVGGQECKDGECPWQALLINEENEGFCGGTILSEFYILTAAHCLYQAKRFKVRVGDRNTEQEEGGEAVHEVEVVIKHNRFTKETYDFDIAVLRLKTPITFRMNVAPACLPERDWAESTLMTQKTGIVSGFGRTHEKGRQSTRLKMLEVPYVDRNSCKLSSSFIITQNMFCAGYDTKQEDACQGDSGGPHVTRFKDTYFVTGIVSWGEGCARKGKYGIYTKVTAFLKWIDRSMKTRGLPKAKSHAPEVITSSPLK

Compound | Ki [1] | Ki [2] | Ki [3] | Ki [4]
CCOC(=O)[C@@H]1CCCCC1NC(=O)[C@@H](Cc1ccccc1)c1cccc2ccc(C(=N)N)cc12 (some centres undefined) | > 4200 nM | 530 nM | 240 nM | –
N=C(N)c1ccc2scc(C(Cc3ccccc3)C(=O)Nc3ccc(S(=O)(=O)Nc4ccc(Cl)nn4)cc3)c2c1 (centres undefined) | – | 5360 nM | 930 nM | –
CCOC(=O)[C@@H]1CCCCC1NC(=O)[C@@H](Cc1ccccc1)c1csc2ccc(C(=N)N)cc12 (some centres undefined) | – | 180 nM | 120 nM | –
N=C(N)c1ccc2scc(C(Cc3ccccc3)C(=O)Nc3ccc(-n4cnc(-c5ccccc5)c4)cc3)c2c1.O=C(O)C(F)(F)F (centres undefined) | > 4200 nM | 2020 nM | 390 nM | > 6300 nM
N=C(N)c1ccc2scc(C(Cc3ccccc3)C(=O)Nc3ccc(Oc4ccccc4)cc3)c2c1 (centres undefined) | – | 450 nM | 250 nM | –
N=C(N)c1ccc2scc([C@@H](Cc3ccccc3)C(=O)Nc3ccc4ncsc4c3)c2c1 | – | 2700 nM | 480 nM | –
COC(=O)[C@H]1CCCCC1NNC(=O)[C@@H](Cc1ccccc1)c1csc2ccc(C(=N)N)cc12 (some centres undefined) | – | > 9000 nM | 41300 nM | –
N=C(N)c1ccc2scc(C(Cc3ccccc3)C(=O)Nc3ccc4ncsc4c3)c2c1 (single isomer, unassigned) | – | 5700 nM | 14200 nM | –
N=C(N)c1ccc2scc([C@H](Cc3ccccc3)C(=O)NC3CCCC[C@H]3C(=O)O)c2c1 (some centres undefined) | – | 200 nM | 3500 nM | –
CCC(C(=O)Nc1ccc(-n2cnc3ccccc32)cc1)c1csc2ccc(C(=N)N)cc12.O=C(O)C(F)(F)F (centres undefined) | 270 nM | 71 nM | 220 nM | > 270 nM
N=C(N)c1ccc2scc([C@H](Cc3ccccc3)C(=O)NC3CCCC[C@H]3C(=O)NCC(N)=O)c2c1 (some centres undefined) | – | 65 nM | 280 nM | –
N=C(N)c1ccc2scc(C(Cc3ccccc3)C(=O)Nc3ccc(-n4ccc(C(F)(F)F)n4)cc3)c2c1 (centres undefined) | – | 410 nM | 130 nM | –
COC(=O)[C@H]1CCCCC1NNC(=O)[C@H](Cc1ccccc1)c1csc2ccc(C(=N)N)cc12 (some centres undefined) | – | 270 nM | 280 nM | –
N=C(N)c1ccc2scc(C3(C(=O)Nc4ccc(-n5cnc6ccccc65)cc4)CC3)c2c1.O=C(O)C(F)(F)F | 60 nM | 22 nM | 4900 nM | 390 nM
Cc1ccc(F)cc1NC(=O)C(Cc1ccccc1)c1csc2ccc(C(=N)N)cc12 (centres undefined) | – | > 8000 nM | 960 nM | –
CCOC(=O)[C@@H]1CCCCC1NC(=O)C(Cc1ccccc1)c1coc2ccc(C(=N)N)cc12 (some centres undefined) | > 4200 nM | 270 nM | 1190 nM | –
CCNC(=O)[C@@H]1CCCCC1NC(=O)[C@@H](Cc1ccccc1)c1csc2ccc(C(=N)N)cc12 (some centres undefined) | – | 130 nM | 430 nM | –
N=C(N)c1ccc2scc(C(Cc3ccc(N)cc3)C(=O)Nc3ccc(-n4cnc5ccccc54)cc3)c2c1.O=C(O)C(F)(F)F (centres undefined) | > 4200 nM | 47 nM | 74 nM | 4200 nM
N=C(N)c1ccc2scc(C(Cc3ccccc3)C(=O)Nc3ccc(-n4cnc5ccccc54)cc3)c2c1.O=C(O)C(F)(F)F (centres undefined) | 1020 nM | 120 nM | 98 nM | > 6300 nM

More lines, now with the values ahead:

Ki [1] | Ki [2] | Ki [3] | Ki [4] | Compound
– | 90 nM | 500 nM | – | COC(=O)[C@@H]1CCCCC1NNC(=O)C(Cc1ccccc1)c1csc2ccc(C(=N)N)cc12 (some centres undefined)
> 4200 nM | – | – | 4200 nM | N=C(N)c1ccc2[nH]cc(C(Cc3ccc(N)cc3)C(=O)Nc3ccc(-n4cnc5ccccc54)cc3)c2c1.O=C(O)C(F)(F)F (centres undefined)
– | > 8000 nM | 780 nM | – | N=C(N)c1ccc2scc(C(Cc3ccccc3)C(=O)Nc3ccc4ncsc4c3)c2c1 (centres undefined)
> 4200 nM | 280 nM | 1250 nM | 4200 nM | N=C(N)c1ccc2scc(C(CC(=O)Nc3ccc(-n4cnc5ccccc54)cc3)Cc3ccccc3)c2c1.O=C(O)C(F)(F)F (centres undefined)
– | 300 nM | 310 nM | – | COC(=O)[C@H]1CCCCC1NNC(=O)C(Cc1ccccc1)c1csc2ccc(C(=N)N)cc12 (some centres undefined)
150 nM | – | – | 600 nM | N=C(N)c1ccc2[nH]cc(C(Cc3ccccc3)C(=O)Nc3ccc(-c4ccccc4S(N)(=O)=O)cc3)c2c1 (centres undefined)
– | > 9000 nM | > 32000 nM | – | N=C(N)c1ccc2scc([C@H](Cc3ccccc3)C(=O)NC3CCCC[C@H]3C(=O)NCc3ccccc3)c2c1 (some centres undefined)
3900 nM | 740 nM | 230 nM | > 6300 nM | N=C(N)c1ccc2scc(C(Cc3cccc4ccccc34)C(=O)Nc3ccc(-n4cnc5ccccc54)cc3)c2c1.O=C(O)C(F)(F)F (centres undefined)
– | > 8000 nM | 1730 nM | – | N#Cc1ccc(NC(=O)C(Cc2ccccc2)c2csc3ccc(C(=N)N)cc23)cc1 (centres undefined)
> 4200 nM | > 9000 nM | 8530 nM | – | CCOC(=O)[C@@H]1CCCCC1NC(=O)C(Cc1ccccc1)C1=CS(=O)(=O)c2ccc(C(=N)N)cc21 (some centres undefined)
– | 3240 nM | 580 nM | – | CC1CCC(NC(=O)C(Cc2ccccc2)c2csc3ccc(C(=N)N)cc23)CC1 (centres undefined)
340 nM | – | – | 13000 nM | N=C(N)c1ccc2[nH]cc(C(Cc3ccccc3)C(=O)Nc3ccc(-n4cnc5ccccc54)cc3F)c2c1.O=C(O)C(F)(F)F (centres undefined)
– | 120 nM | 140 nM | – | COC(=O)[C@@H]1CCCCC1NC(=O)[C@@H](Cc1ccccc1)c1csc2ccc(C(=N)N)cc12 (some centres undefined)
1500 nM | 19 nM | 340 nM | – | COC(=O)[C@@H]1CCCCC1NC(=O)C(Cc1ccccc1)c1c[nH]c2ccc(C(=N)N)cc12 (some centres undefined)
